Data on 21 compounds can be found in patent US10792282B2, “Protein kinase C inhibitors and uses thereof” (Rigel Pharmaceuticals, Inc., priority 2013, dated 2020).

The assay has as its system PKC mediated IL-2 production. Description: IL-2 ELISA, human primary T cell, anti CD3+CD28+ (whole cell functional assay). The class given is cell-based. In outline: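 Anti-CD3/CD28-expanded human primary T cells (100,000/well), pre-incubated 1 h at 37° C with compound, then stimulated on plates coated with 1 μg/ml αCD3 and 5 μg/ml αCD28. Counter assay used 0.5 ng/ml PMA plus 0.1 μM ionomycin (final). Supernatant IL-2 measured by ELISA after 24 h.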
For orientation: ELISA stands for enzyme-linked immunosorbent assay.

Setting [1] is: IL-2 production, human primary T cells stimulated with αCD3 and αCD28, 24 hours, IL-2 by ELISA, read-out: EC50.
[2] abbreviates: Homo sapiens, T-cell, 24 h, IL-2 production, human primary T cells stimulated with αCD3 and αCD28, 24 hours, IL-2 by ELISA, read-out: EC50.
Where [3] appears, read: Homo sapiens, T-cell, human primary T cells stimulated with αCD3 and αCD28, IL-2 by ELISA, read-out: EC50 (blocked IL-2 production).

Like-named read-outs stand apart in the source and are kept apart here. A value given as a limit tells only on which side of the number the result lay.

With `CC(C)N1CCC(Oc2ccc(Nc3ncc(F)c(NC4CC5CCCN5C(C)(C)C4)n3)cc2OC(F)F)CC1` (stereo not shown) [Compound 10, (R/S, S/R, R/R, S/S)—N^2-(4-(1-isopropylpiperidin-4-yloxy)-3-(difluoromethoxy)phenyl)-5-fluoro-N^4-(octahydro-5,5-dimethylindolizin-7-yl)pyrimidine-2,4-diamine], the half-maximal effective concentration (EC50) (in general, the concentration that produces a half-maximal response) under setting [1] is below 0.5 µM.

`Cc1ncc(Nc2ncc(F)c(NC3CC4CCCN4C(C)(C)C3)n2)cc1-n1nnnc1C` (stereo not shown) [Compound 15]: under setting [1], the EC50 is below 0.5 µM.

Regarding `CC1(C)CC(Nc2nc(Nc3cc(-n4cnnn4)c(C4CC4)cc3F)ncc2F)CC2CCCN21` (racemic) [Compound 54, (±)-N2-(4-cyclopropyl-2-fluoro-5-(1H-tetrazol-1-yl)phenyl)-5-fluoro-n^4-(octahydro-5,5-dimethylindolizin-7-yl)pyrimidine-2,4-diamine], the EC50 under setting [1] was below 0.1 µM.

In the case of `Cn1nnn(-c2cc(Nc3ncc(F)c(N[C@@H]4C[C@@H]5CCCN5C(C)(C)C4)n3)c(F)cc2OCC(C)(C)O)c1=O` [Compound 87, 1-(5-(4-((7R,8aS)-5,5-dimethyloctahydroindolizin-7-ylamino)-5-fluoropyrimidin-2-ylamino)-4-fluoro-2-(2-hydroxy-2-methylpropoxy)phenyl)-4-methyl-1H-tetrazol-5(4H)-one], the EC50 under setting [2] is below 0.1 µM and the EC50 under setting [3] is below 10 µM.

Consider `Cn1nnn(-c2cc(Nc3ncc(F)c(N[C@H]4C[C@@H]5C[C@@H](F)CN5C(C)(C)C4)n3)c(F)cc2C2CC2)c1=O` [Compound 65, 1-(5-(4-((2R,7S,8aR)-2-fluoro-octahydro-5,5-dimethylindolizin-7-ylamino)-5-fluoropyrimidin-2-ylamino)-2-cyclopropyl-4-fluorophenyl)-4-methyl-1H-tetrazol-5(4H)-one], for which the EC50 under setting [2] was below 10 µM and the EC50 under setting [3] was below 10 µM.

As to `CC(=O)N(C)c1cc(Nc2ncc(F)c(NC3CC(C)(C)N4CCCC4C3C)n2)c(F)cc1C1CC1` (stereo not shown) [Compound 73], the EC50 under setting [1] was below 0.5 µM.

Regarding `COc1cc(Nc2ncc(F)c(NC3CC4CCCN4C(C)(C)C3)n2)cc(-n2nnnc2C)c1` (stereo not shown) [Compound 12, (R/S, S/R, R/R, S/S)-5-fluoro-N4-(octahydro-5,5-dimethylindolizin-7-yl)N2-(3-methoxy-5-(5-methyl-1H-tetrazol-1-yl)phenyl)pyrimidine-2,4-diamine], the EC50 under setting [1] was below 1 µM.

For `CC1(C)Oc2ccc(Nc3ncc(F)c(NC4CC5CCCN5C(C)(C)C4)n3)cc2-n2nnnc21` (stereo not shown) [Compound 1, N2-(4,4-dimethyl-4H-benzo[b]tetrazolo[1,5-d][1,4]oxazin-8-yl)-5-fluoro-N4-(octahydro-5,5-dimethylindolizin-7-amine)pyrimidine-2,4-diamine], the EC50 under setting [1] was below 0.5 µM.

As to `Cn1nnn(-c2cc(Nc3ncc(C#N)c(N[C@@H]4C[C@@H]5CCCN5C(C)(C)C4)n3)c(F)cc2OC(C)(C)CO)c1=O` [Compound 84, 4-((7R,8aS)-octahydro-5,5-dimethylindolizin-7-ylamino)-2-(4-(1-hydroxy-2-methylpropan-2-yloxy)-2-fluoro-5-(4,5-dihydro-4-methyl-5-oxotetrazol-1-yl)phenylamino)pyrimidine-5-carbonitrile], the EC50 is below 0.5 µM under setting [2] and below 10 µM under setting [3].

For the compound `Cn1nnn(-c2cc(Nc3ncc(F)c(N[C@@H]4CCN5[C@@H](CCC5(C)C)C4)n3)c(F)cc2C2CC2)c1=O` (single isomer, unassigned) [Compound 36], the EC50 under setting [1] was below 10 µM.

As to `CC1C(Nc2nc(Nc3cc(OC(F)F)c(C4CC4)cc3F)ncc2F)CC(C)(C)N2CCCC12` (stereo not shown) [Compound 75], the EC50 under setting [1] is below 0.5 µM.

As for `CC1(C)CC(Nc2nc(Nc3ccc(O[C@H]4CCOC4)c(C#N)c3)ncc2F)CC2CCCN21` (stereo partly drawn) [Compound 60, 2-((S)-tetrahydrofuran-3-yloxy)-5-(5-fluoro-4-(octahydro-5,5-dimethylindolizin-7-ylamino)pyrimidin-2-ylamino)benzonitrile], the EC50 under setting [2] was below 0.5 µM and the EC50 under setting [3] is below 10 µM.

`Cn1nnn(-c2cc(Nc3ncc(F)c(N[C@@H]4C[C@@H]5CCCN5C(C)(C)C4)n3)ccc2OC2CCOCC2)c1=O` [Compound 52, 1-(5-(5-fluoro-4-(octahydro-5,5-dimethylindolizin-7-ylamino)pyrimidin-2-ylamino)-2-(tetrahydro-2H-pyran-4-yloxy)phenyl)-4-methyl-1H-tetrazol-5(4H)-one]: the EC50 was below 0.5 µM under setting [2] and below 10 µM under setting [3].

Turning to `C[C@H](O)COc1cc(F)c(Nc2ncc(F)c(N[C@@H]3C[C@@H]4CCCN4C(C)(C)C3)n2)cc1-n1nnn(C)c1=O` [Compound 81, 1-(2-((S)-2-hydroxypropoxy)-5-(4-((7R,8aS)-octahydro-5,5-dimethylindolizin-7-ylamino)-5-fluoropyrimidin-2-ylamino)-4-fluorophenyl)-4-methyl-1H-tetrazol-5(4H)-one], the EC50 under setting [3] is below 10 µM; the EC50 (T-cell, IL-2 production, human primary T cells stimulated with αCD3 and αCD28, 24 hours, IL-2 by ELISA, read-out: EC50) was below 0.1 µM.

For the compound `CC(C)N1CCC(Oc2ccc(Nc3ncc(F)c(NC4CC5CCCN5C(C)(C)C4)n3)cc2OC(F)F)CC1` (stereo not shown) [Compound 7, (R/S, S/R, R/R, S/S)—N^2-(4-(1-isopropylpiperidin-4-yloxy)-3-(difluoromethoxy)phenyl)-5-fluoro-N^4-(octahydro-5,5-dimethylindolizin-7-yl)pyrimidine-2,4-diamine], the EC50 under setting [1] was below 10 µM.

In the case of `Cn1nnn(-c2cc(Nc3ncc(F)c(N[C@@H]4C[C@@H]5CC(F)(F)CN5C(C)(C)C4)n3)c(F)cc2C2CC2)c1=O` [Compound 45, 1-(5-(4-((7R,8aR)-2,2-difluoro-octahydro-5,5-dimethylindolizin-7-ylamino)-5-fluoropyrimidin-2-ylamino)-2-cyclopropyl-4-fluorophenyl)-4-methyl-1H-tetrazol-5(4H)-one], the EC50 is below 10 µM under setting [2] and below 10 µM under setting [3].

`Cn1nnn(-c2cc(Nc3ncc(F)c(NC4CCN5C(CCC5(C)C)C4)n3)c(F)cc2C2CC2)c1=O` (stereo not shown) [Compound 26]: the EC50 under setting [2] is below 10 µM and the EC50 under setting [3] is below 10 µM.

As for `Cn1nnn(-c2cc(Nc3ncc(F)c(N[C@@H]4C[C@@H]5CCCN5C(C)(C)C4)n3)c(F)cc2OCCO)c1=O` [Compound 77, 1-(2-(2-hydroxyethoxy)-5-(4-((7R,8aS)-octahydro-5,5-dimethylindolizin-7-ylamino)-5-fluoropyrimidin-2-ylamino)-4-fluorophenyl)-4-methyl-1H-tetrazol-5(4H)-one], where the note is “T-cell, human primary T cells stimulated with αCD3 and αCD28, IL-2 by ELISA, read-out: EC50 (blocked IL-2 production)”, the EC50 is below 10 µM.

As for `CC1(C)C[C@H](Nc2nc(Nc3cc(S(F)(F)(F)(F)F)ccc3F)ncc2F)C[C@@H]2CCCN21` [Compound 71], the EC50 was below 1 µM under setting [2] and below 10 µM under setting [3].

As for `CC1(C)CC(Nc2nc(Nc3ccc(OC4CCOCC4)c(C#N)c3)ncc2F)CC2CCCN21` (single isomer, unassigned) [Compound 41, 5-(5-fluoro-4-(octahydro-5,5-dimethylindolizin-7-ylamino)pyrimidin-2-ylamino)-2-(tetrahydro-2H-pyran-4-yloxy)benzonitrile], the EC50 under setting [2] is below 0.5 µM and the EC50 under setting [3] was below 10 µM.

On to `CC(C)N1CCC(Oc2ccc(Nc3ncc(F)c(NC4CC5CCCN5C(C)(C)C4)n3)cc2OC(F)F)CC1` (stereo not shown) [Compound 9, (R/S, S/R, R/R, S/S)—N^2-(4-(1-isopropylpiperidin-4-yloxy)-3-(difluoromethoxy)phenyl)-5-fluoro-N^4-(octahydro-5,5-dimethylindolizin-7-yl)pyrimidine-2,4-diamine], for which, under setting [1], the EC50 is below 0.5 µM.
